Patent US20260272966A1, “COMBINATION TREATMENT FOR OVARIAN CANCER” (THE JOHNS HOPKINS UNIVERSITY, priority 2023, published 2026)
Entries after “also recorded” stand apart in the source; their conditions may differ.

Tests used:
OV90 = test: Cell viability assay (CellTiter-Blue), OV90; format: cell-based; settings: for toxicity of the chemotherapeutic agent with ivospemin co-treatment (cell viability): OV90, 2 μM ivospemin 96 h, chemotherapeutic last 24 h
Source text: (§1) Cell lines, culture conditions, and reagents. Ovarian adenocarcinoma cell lines A2780 and ACRP were maintained in RPMI 1640 containing 10% fetal bovine serum. Ovarian adenocarcinoma lines CaOV-3 and OV90 were maintained in DMEM supplemented with 10% fetal bovine serum. ID8 mouse ovarian surface epithelial cells (MOSE) overexpressing VEGF and β-Defensin (VDID8+) were maintained in RPMI 1640 supplemented with 10% fetal bovine serum. […] All chemotherapeutics were purchased commercially from Sigma-Aldrich (St. Louis, MO).
(§2) Cell viability assays. Cells were seeded in triplicate wells per condition with a total cell count of 2×10^3 cells per well of a 96-well plate and allowed to adhere overnight. Cells then received 100 μL fresh medium with increasing concentrations of ivospemin. Following 96 hours of ivospemin monotherapy, 20 μL of CellTiter-Blue reagent (Promega, Madison, WI) was added, and following a 3-hour incubation, the fluorescence was measured in black, clear-bottom plates at 560Ex/590Em on a SpectraMax M5 (Molecular Devices, Sunnyvale CA). Wells containing medium alone were used as background controls. The combination chemotherapy/ivospemin experiment conditions were identical except following 72 hours of ivospemin exposure, cells received fresh medium with ivospemin and the appropriate chemotherapeutic. After an additional 24 hours (96 total hours of ivospemin, 24 hours of chemotherapy), cell viability was determined using the CellTiter-Blue cell viability assay. Results are presented as percentages relative to untreated cells. Each bar is an average of at least 3 independent biological experiments (each experiment is noted by an individual point).

A2780 = test: Cell viability assay (CellTiter-Blue), A2780; format: cell-based; settings: for toxicity of the chemotherapeutic agent with ivospemin co-treatment (cell viability): A2780, 2 μM ivospemin 96 h, gemcitabine 50 nM, topotecan 50 nM, paclitaxel 2 nM, docetaxel 2 nM last 24 h
Source text: as §1, §2

CaOV-3 = test: Cell viability assay (CellTiter-Blue), CaOV-3; format: cell-based; settings: for toxicity of the chemotherapeutic agent with ivospemin co-treatment (cell viability): CaOV-3, 2 μM ivospemin 96 h, chemotherapeutic last 24 h
Source text: as §1, §2

ACRP = test: Cell viability assay (CellTiter-Blue), ACRP; format: cell-based; settings: for toxicity of the chemotherapeutic agent with ivospemin co-treatment (cell viability): 2 μM ivospemin 96 h, chemotherapeutic last 24 h
Source text: as §1, §2

[1] = test system: ovarian adenocarcinoma cell lines; test: Cell viability, ovarian adenocarcinoma cell lines taken together; format: cell-based; settings: for added in vitro toxicity/benefit of the chemotherapeutic over ivospemin (SBP-101) alone: cisplatin-sensitive and cisplatin-resistant ovarian cancer cell lines
Source text: as §1, §2
The cisplatin-sensitive ovarian adenocarcinoma lines, A2780 and OV90 (FIG. 4A), and the cisplatin-resistant ovarian adenocarcinoma lines, ACRP and CaOV-3 (FIG. 4B), were treated for 96 hours with concentrations of ivospemin ranging from 500 nM to 10 μM. […] These four ovarian adenocarcinoma lines were then treated with various chemotherapeutic agents including gemcitabine (50 nM), topotecan (50 nM), paclitaxel (2 nM) and docetaxel (2 nM). These agents represent standard of care chemotherapeutic options used with some regularity in patients with platinum-resistant ovarian cancer. Cells were treated with three increasing concentrations of each chemotherapy alone to determine an appropriate dose prior to combination studies.

SSAT = SSAT activity in treated ovarian adenocarcinoma line; format: cell-based, human; settings: ivospemin 5 μM, doxorubicin 500 nM, 48 hours
Experimental: (§3) FIG. 11. […] The activity of the polyamine catabolic enzyme SSAT and the polyamine biosynthetic enzyme ODC was evaluated.
(§4) The activity of polyamine catabolic enzyme SSAT and polyamine biosynthetic enzyme ODC were evaluated.

ODC = ODC activity in treated ovarian adenocarcinoma line; format: cell-based, human; settings: ivospemin 5 μM, doxorubicin 500 nM, 48 hours
Experimental: as §3, §4

VDID8+ cells = settings: NSG mice
[2] = test system: VDID8+ syngeneic ovarian epithelial cancer cells; test: VDID8+ syngeneic mouse model of ovarian cancer (survival, ascites); settings: for average time between VDID8+ cell injection and ascites formation: 15% weight gain or visible abdominal swelling; for average ascites volume at first drain / effect on survival as single agent: monotherapy; for effect on survival as single agent: VDID8+ model
Experimental: Syngeneic mouse model. Female C57BL/6J wild-type mice (7-8 weeks old, The Jackson Laboratory) were housed at the Johns Hopkins Sidney Kimmel Comprehensive Cancer Center Animal Resources Core and cared for in accordance with the policies set forth by the Johns Hopkins University Animal Care and Use Committee. VEGF-β-Defensin ID8 (VDID8+) syngeneic mouse ovarian surface epithelial cells (first developed by Dr. Katherine Roby) were injected intraperitoneally into C57BL/6 mice (350,000 cells/mouse) (Roby et al., 2000). Treatment of mice began three days following VDID8^+ injection. Mice in the combination study were treated with the following dosing schedule: 24 mg/kg ivospemin 2qw×3, alternating weeks; 30 mg/kg gemcitabine qw×4; 1 mg/kg topotecan 3qw×4. All drugs were administered intraperitoneally. Following production of palpable ascites fluid or a 15% weight gain, animals were drained of their ascites fluid, which was measured as a marker for tumor burden. Decisions for subsequent drains was determined by the same criteria. No animals were drained more than once a week, and animals who survived to a fourth drain were subsequently euthanized.
Statistical analysis. All statistical testing was completed using GraphPad Prism software (v9.5.1, La Jolla, CA). […] Multiple testing correction was performed based on the Benjamini-Hochberg method. […] All mouse survival curves were analyzed using the log-rank (Mantel-Cox) test. Mouse ascites data were analyzed by one-way ANOVA and then individual comparisons were analyzed by two-sided Welch's t-tests unless otherwise specified. Multiple testing correction was performed based on the Benjamini-Hochberg method. […] P-value indications are as follows: *<0.05; **<0.01; ***<0.001; ****<0.0001.

[3] = in vivo; cited from earlier work
tumor putrescine levels = settings: eflornithine infusion; cited from earlier work

## CCNCCC(O)CNCCCCNCC(O)CCNCC (stereo not shown) [ivospemin, 3,8,13,18-tetraazaicosane-6,15-diol]
OV90; Homo sapiens, OV-90, ivospemin 96 hours, OV90, cisplatin sensitive
  IC50: 3240 nM
A2780; Homo sapiens, ivospemin 96 hours, A2780, cisplatin sensitive
  IC50: 950 nM
CaOV-3; Homo sapiens, ivospemin 96 hours, CaOV-3, cisplatin resistant
  IC50: 2560 nM
ACRP; ivospemin 96 hours, cisplatin resistant
  IC50: 1410 nM
[1]; 96 hours, A2780, OV90, ACRP, CaOV-3, read-out: IC50 values, all four lines
  IC50: 950 to 3240 nM
SSAT
  SSAT activity: increases SSAT activity
SSAT; listed as SBP-101
  SSAT activity: increase SSAT activity
ODC
  ODC activity: depression of ODC activity
ODC; listed as SBP-101
  ODC activity: decreases ODC activity
VDID8+ cells
  tumor burden and ascites formation: Neither ivospemin alone nor the combination treatment decrease tumor burden or delayed ascites formation
[2]
  average time between VDID8+ cell injection and ascites formation: 39.5 days
  average ascites volume at first drain: 1.15 mL
[2]; days post-injection, ivospemin 24 mg/kg 2qw×3 alternating weeks, gemcitabine 30 mg/kg qw×4, topotecan 1 mg/kg 3qw×4, i.p.
  median survival: 52 days
[2]; gemcitabine/topotecan combination study
  increase in median survival compared to untreated (control) animals: 20%
[2]; listed as SBP-101
  effect on survival as single agent: marked increase; also recorded: significantly increased

## CC[C@@]1(O)C(=O)OCc2c1cc1n(c2=O)Cc2cc3c(CN(C)C)c(O)ccc3nc2-1 [topotecan]
OV90
  toxicity of the chemotherapeutic agent with ivospemin co-treatment (cell viability): did increase; also recorded: increased the toxicity
A2780
  toxicity of the chemotherapeutic agent with ivospemin co-treatment (cell viability): significantly exceeded the effect of ivospemin alone
CaOV-3
  toxicity of the chemotherapeutic agent with ivospemin co-treatment (cell viability): significantly increased; also recorded: increased the toxicity
ACRP
  toxicity of the chemotherapeutic agent with ivospemin co-treatment (cell viability): greater toxicity than ivospemin alone; also recorded: significantly exceeded the effect of ivospemin alone
[1]
  added in vitro toxicity/benefit of the chemotherapeutic over ivospemin (SBP-101) alone: increased ivospemin toxicity; also recorded: increased the in vitro toxicity of SBP-101
[2]
  average time between VDID8+ cell injection and ascites formation: 43.4 days
  average ascites volume at first drain: 3.19 mL
  effect on survival as single agent: Neither gemcitabine nor topotecan produced a statistically significant survival benefit; also recorded: little effect

## CC(=O)O[C@@]12CO[C@@H]1C[C@H](O)[C@@]1(C)C(=O)[C@H](O)C3=C(C)[C@@H](OC(=O)[C@H](O)[C@@H](NC(=O)OC(C)(C)C)c4ccccc4)C[C@@](O)([C@@H](OC(=O)c4ccccc4)[C@H]21)C3(C)C [docetaxel]
OV90
  toxicity of the chemotherapeutic agent with ivospemin co-treatment (cell viability): did not increase
[1]
  added in vitro toxicity/benefit of the chemotherapeutic over ivospemin (SBP-101) alone: little to no benefit; also recorded: did not have any added benefit

## Nc1ccn([C@@H]2O[C@H](CO)[C@@H](O)C2(F)F)c(=O)n1 [gemcitabine]
OV90
  toxicity of the chemotherapeutic agent with ivospemin co-treatment (cell viability): did increase; also recorded: increased the toxicity
A2780
  toxicity of the chemotherapeutic agent with ivospemin co-treatment (cell viability): significantly exceeded the effect of ivospemin alone
CaOV-3
  toxicity of the chemotherapeutic agent with ivospemin co-treatment (cell viability): significantly increased; also recorded: increased the toxicity
ACRP
  toxicity of the chemotherapeutic agent with ivospemin co-treatment (cell viability): greater toxicity than ivospemin alone; also recorded: significantly exceeded the effect of ivospemin alone
[1]
  added in vitro toxicity/benefit of the chemotherapeutic over ivospemin (SBP-101) alone: increased ivospemin toxicity; also recorded: increased the in vitro toxicity of SBP-101
[2]
  average time between VDID8+ cell injection and ascites formation: 41.7 days
  average ascites volume at first drain: 2.03 mL
  effect on survival as single agent: Neither gemcitabine nor topotecan produced a statistically significant survival benefit
[2]; listed as Gemcitabine
  effect on survival as single agent: little effect

## COc1cccc2c1C(=O)c1c(O)c3c(c(O)c1C2=O)C[C@@](O)(C(=O)CO)C[C@@H]3OC1CC(N)C(O)C(C)O1 (stereo partly drawn) [doxorubicin, (8S,10S)-10-(4-amino-5-hydroxy-6-methyl-tetrahydro-2H-pyran-2-yloxy)-6,8,11-trihydroxy-8-(2-hydroxyacetyl)-1-methoxy-7,8,9,10-tetrahydrotetracene-5,12-dione]
SSAT
  SSAT activity: increases SSAT activity
ODC
  ODC activity: does not have any effect
[3]
  nausea and vomiting, share of people treated: 30-90%
[2]; ivospemin 24 mg/kg 2qw×4 alternating weeks, doxorubicin 0.5 mg/kg 2qw×4
  median survival: 96 days
[2]
  effect on survival as single agent: significantly increased

## CC(=O)O[C@H]1C(=O)[C@@]2(C)[C@H]([C@H](OC(=O)c3ccccc3)[C@]3(O)C[C@H](OC(=O)[C@H](O)[C@@H](NC(=O)c4ccccc4)c4ccccc4)C(C)=C1C3(C)C)[C@]1(OC(C)=O)CO[C@@H]1C[C@@H]2O [paclitaxel]
OV90
  toxicity of the chemotherapeutic agent with ivospemin co-treatment (cell viability): did not increase
[1]
  added in vitro toxicity/benefit of the chemotherapeutic over ivospemin (SBP-101) alone: little to no benefit
[1]; listed as Paclitaxel
  added in vitro toxicity/benefit of the chemotherapeutic over ivospemin (SBP-101) alone: did not have any added benefit

## NCCCC(N)(C(=O)O)C(F)F (stereo not shown) [eflornithine, 2,5-diamino-2-(difluoromethyl) pentanoic acid]
Tumor putrescine levels
  decrease in tumor putrescine levels: 90%
